Source: ChEMBL document CHEMBL1201862, “PubChem BioAssay data set” (2004)
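How tested: cells in 96-well plates exposed to compound for 48 hours at five concentrations. GI50 = concentration required for 50% inhibition of growth.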 The source made the active and inactive calls. Rule as the data show it: active = GI50 up to about 1.1 µM and inactive = higher.

Experiments:
Assay in all cases: growth of human tumour cells (NCI), 48 h
[1] = test system: HOP-18
[2] = test system: Malme-3M
[3] = test system: NCI-H226
[4] = test system: TK-10
[5] = test system: EKVX
[6] = test system: SNB-75
[7] = test system: HT-29
[8] = test system: OVCAR-3
[9] = test system: RPMI-8226
[10] = test system: NCI-H522
[11] = test system: OVCAR-5
[12] = test system: NCI-H23
[13] = test system: SNB-19
[14] = test system: LXFL 529
[15] = test system: 786-0
[16] = test system: LOX IMVI
[17] = test system: U-251
[18] = test system: HL-60
[19] = test system: HCT-15
[20] = test system: SK-OV-3
[21] = test system: DLD-1
[22] = test system: HCC 2998
[23] = test system: RXF 393
[24] = test system: OVCAR-8
[25] = test system: CCRF-CEM
[26] = test system: XF498
[27] = test system: SW-620
[28] = test system: K562
[29] = test system: SR
[30] = test system: SK-MEL-5
[31] = test system: M19-MEL
[32] = test system: SK-MEL-2
[33] = test system: DMS-273
[34] = test system: COLO 205
[35] = test system: SK-MEL-28
[36] = test system: HCT-116
[37] = test system: MOLT-4
[38] = test system: DMS-114
[39] = test system: OVCAR-4
[40] = test system: IGROV-1
[41] = test system: A549
[42] = test system: UACC-257
[43] = test system: ACHN
[44] = test system: M14
[45] = test system: HOP-62
[46] = test system: SN12C
[47] = test system: KM-20L2
[48] = test system: SF-539
[49] = test system: SF-295
[50] = test system: A498
[51] = test system: NCI-H460
[52] = test system: UACC-62
[53] = test system: UO-31
[54] = test system: KM12
[55] = test system: HOP-92
[56] = test system: CAKI-1
[57] = test system: SF-268

C[C@H]1CC[P+](Cc2ccccc2)(c2ccccc2)C1 (stereo partly specified)
GI50 [1]: > 100 µM (inactive)
GI50 [2]: 30.3 µM (inactive)
GI50 [3]: > 100 µM (inactive)
GI50 [4]: > 100 µM (inactive)
GI50 [5]: 73.3 µM (inactive)
GI50 [6]: 73.6 µM (inactive)
GI50 [7]: 73.6 µM (inactive)
GI50 [8]: 41.2 µM (inactive)
GI50 [9]: 19.5 µM (inactive)
GI50 [10]: 76.7 µM (inactive)
GI50 [11]: > 100 µM (inactive)
GI50 [12]: > 100 µM (inactive)
GI50 [13]: > 100 µM (inactive)
GI50 [14]: 26.4 µM (inactive)
GI50 [15]: > 100 µM (inactive)
GI50 [16]: 71.4 µM (inactive)
GI50 [17]: 36.7 µM (inactive)
GI50 [18]: 33.9 µM (inactive)
GI50 [19]: > 100 µM
GI50 [20]: > 100 µM (inactive)
GI50 [21]: > 100 µM (inactive)
GI50 [22]: 67.6 µM (inactive)
GI50 [23]: > 100 µM (inactive)
GI50 [24]: > 100 µM (inactive)
GI50 [25]: > 100 µM (inactive)
GI50 [26]: < 0.01 µM (active)
GI50 [27]: > 100 µM (inactive)
GI50 [28]: > 100 µM (inactive)
GI50 [29]: 90.4 µM (inactive)
GI50 [30]: 22.2 µM (inactive)
GI50 [31]: 26.8 µM (inactive)
GI50 [32]: > 100 µM (inactive)
GI50 [33]: > 100 µM (inactive)
GI50 [34]: 38 µM (inactive)
GI50 [35]: 84.7 µM (inactive)
GI50 [36]: > 100 µM (inactive)
GI50 [37]: > 100 µM (inactive)
GI50 [38]: 23 µM (inactive)
GI50 [39]: > 100 µM (inactive)
GI50 [40]: 64.7 µM (inactive)
GI50 [41]: > 100 µM (inactive)
GI50 [42]: 25.7 µM (inactive)
GI50 [43]: > 100 µM (inactive)
GI50 [44]: > 100 µM (inactive)
GI50 [45]: > 100 µM (inactive)
GI50 [46]: > 100 µM (inactive)
GI50 [47]: 93.5 µM (inactive)
GI50 [48]: > 100 µM (inactive)
GI50 [49]: > 100 µM (inactive)
GI50 [50]: > 100 µM (inactive)
GI50 [51]: > 100 µM (inactive)
GI50 [52]: 76.6 µM (inactive)
GI50 [53]: > 100 µM (inactive)
GI50 [54]: > 100 µM (inactive)

Cc1nc2c3c(ccc2nc1O)C(=O)c1ccccc1C3=O
GI50 [1]: 66.7 µM (inactive)
GI50 [2]: > 100 µM (inactive)
GI50 [3]: 29.2 µM (inactive)
GI50 [4]: > 100 µM (inactive)
GI50 [5]: 23.1 µM (inactive)
GI50 [6]: 15.6 µM (inactive)
GI50 [7]: > 100 µM (inactive)
GI50 [8]: > 100 µM (inactive)
GI50 [10]: 7.18 µM (inactive)
GI50 [11]: > 100 µM (inactive)
GI50 [12]: 66.7 µM (inactive)
GI50 [13]: > 100 µM (inactive)
GI50 [55]: 96.2 µM (inactive)
GI50 [56]: 25.3 µM (inactive)
GI50 [14]: 70 µM (inactive)
GI50 [15]: > 100 µM (inactive)
GI50 [16]: 41.6 µM (inactive)
GI50 [17]: 54.1 µM (inactive)
GI50 [18]: > 100 µM (inactive)
GI50 [19]: 48 µM
GI50 [20]: 24.5 µM (inactive)
GI50 [21]: 31.8 µM (inactive)
GI50 [22]: > 100 µM (inactive)
GI50 [23]: 13.1 µM (inactive)
GI50 [24]: 80 µM (inactive)
GI50 [26]: > 100 µM (inactive)
GI50 [27]: 56.2 µM (inactive)
GI50 [28]: > 100 µM (inactive)
GI50 [29]: > 100 µM (inactive)
GI50 [30]: > 100 µM (inactive)
GI50 [31]: > 100 µM (inactive)
GI50 [34]: > 100 µM (inactive)
GI50 [35]: > 100 µM (inactive)
GI50 [36]: 40 µM (inactive)
GI50 [38]: 44.8 µM (inactive)
GI50 [39]: > 100 µM (inactive)
GI50 [40]: 42.9 µM (inactive)
GI50 [41]: 52 µM (inactive)
GI50 [57]: 15.6 µM (inactive)
GI50 [42]: > 100 µM (inactive)
GI50 [43]: 24.4 µM (inactive)
GI50 [44]: > 100 µM (inactive)
GI50 [45]: 40.4 µM (inactive)
GI50 [46]: 42.2 µM (inactive)
GI50 [47]: > 100 µM (inactive)
GI50 [48]: 40.8 µM (inactive)
GI50 [49]: > 100 µM (inactive)
GI50 [50]: 20.3 µM (inactive)
GI50 [51]: 37.2 µM (inactive)
GI50 [52]: 55.3 µM (inactive)
GI50 [53]: 6.15 µM (inactive)
GI50 [54]: 32.2 µM (inactive)
